In patent US20230107642A1 (Erasca, Inc., priority 2020, published 2023):

What follows are compounds tested against T1, K-Ras G12C (Homo sapiens, UniProt P01116, G12C) (assay: CAF assay (% CAF; method in Example 7, not in this part)). Details: 10 uM compound, 1 h incubation.
T1 construct: This protein contained 188 amino acids in total, including an N-terminal 6-Histidine tag; made in house; host or cells: E. coli BL21
Type: binding

Row | Structure (SMILES) | % CAF @ 10 uM, 1h
1 | C=CC(=O)N1C2CC(=O)CC1CN(c1nc(=O)n3c4c(c(-c5ccc(F)cc5F)c(C(F)(F)F)cc14)SCCC3)C2 [Example 486, 8-(9-acryloyl-7-oxo-3,9-diazabicyclo[3.3.1]nonan-3-yl)-11-(2,4-difluorophenyl)-10-(trifluoromethyl)-3,4-dihydro-2H,6H-[1,4]thiazepino[2,3,4-ij]quinazolin-6-one] | 95%
2 | C=CC(=O)N1CCN(c2nc(=O)n3c4c(c(-c5cc(Cl)c(F)cc5F)c(C(F)(F)F)cc24)SC[C@@H]3COCOC)[C@@H](C)C1 (atropisomer, axis not shown) [Example 553, (3S,10S)-7-((S)-4-acryloyl-2-methylpiperazin-1-yl)-10-(5-chloro-2,4-difluorophenyl)-3-((methoxymethoxy)methyl)-9-(trifluoromethyl)-2H-[1,4]thiazino[2,3,4-ij]quinazolin-5(3H)-one] | 37%

The next lines start with the values.

Row | % CAF @ 10 uM, 1h | Structure (SMILES)
3 | 64.3% | C=CC(=O)N1C[C@H](C)N(c2nc(=O)n3c4c(c(-c5ccc(F)cc5)c(Cl)cc24)SC[C@@H]3COCCOC)C[C@H]1C [Example 558, (S)-7-((2S,5R)-4-acryloyl-2,5-dimethylpiperazin-1-yl)-9-chloro-10-(4-fluorophenyl)-3-((2-methoxyethoxy)methyl)-2H-[1,4]thiazino[2,3,4-ij]quinazolin-5(3H)-one]
4 | 94.1% | C=CC(=O)N1C[C@H](C)N(c2nc(=O)n3c4c(c(-c5cc(Cl)c(F)cc5F)c(C(F)(F)F)cc24)SC[C@@H]3COC)C[C@H]1C (atropisomer, axis not shown) [Example 545, (3S,10R)-7-((2S,5R)-4-acryloyl-2,5-dimethylpiperazin-1-yl)-10-(5-chloro-2,4-difluorophenyl)-3-(methoxymethyl)-9-(trifluoromethyl)-2,3-dihydro-5H-[1,4]thiazino[2,3,4-ij]quinazolin-5-one]
5 | 96% | C=CC(=O)N1[C@H](C)CN(c2nc(=O)n3c4c(c(-c5ccc(F)cc5F)c(C(F)(F)F)cc24)SC[C@@H](OC)C3)C[C@@H]1C [Example 503, (3S)-8-((3S,5R)-4-acryloyl-3,5-dimethylpiperazin-1-yl)-11-(2,4-difluorophenyl)-3-methoxy-10-(trifluoromethyl)-3,4-dihydro-2H,6H-[1,4]thiazepino[2,3,4-ij]quinazolin-6-one]
6 | 21.2% | C=CC(=O)N1C[C@H](C)N(c2nc(=O)n3c4c(c(-c5cc(Cl)c(F)cc5F)c(C(F)(F)F)cc24)SC[C@@H]3CN2CCN(CC(F)F)CC2)C[C@H]1C (atropisomer, axis not shown) [Example 557, (3S,10S)-7-((2S,5R)-4-acryloyl-2,5-dimethylpiperazin-1-yl)-10-(5-chloro-2,4-difluorophenyl)-3-((4-(2,2-difluoroethyl)piperazin-1-yl)methyl)-9-(trifluoromethyl)-2H-[1,4]thiazino[2,3,4-ij]quinazolin-5(3H)-one]
7 | 77.6% | C=CC(=O)N1CCN(c2nc(=O)n3c4c(c(-c5cc(Cl)c(F)cc5F)c(Cl)cc24)SC[C@@H]3CN2CCC3(CC2)COC3)[C@@H](C)C1 [Example 456, (3S)-3-(2-oxa-7-azaspiro[3.5]nonan-7-ylmethyl)-7((S)-4-acryloyl-2-methylpiperazin-1-yl)-9-chloro-10-(5-chloro-2,4-difluorophenyl)-2H-[1,4]thiazino[2,3,4-ij]quinazolin-5(3H)-one]
8 | 83.6% | C=CC(=O)N1C[C@H](C)N(c2nc(=O)n3c4c(c(-c5ccc(F)cc5F)c(C(F)(F)F)cc24)SC[C@@H]3CN2CCN(CC(F)F)CC2)C[C@H]1C [Example 562, (3S)-7-((2S,5R)-4-acryloyl-2,5-dimethylpiperazin-1-yl)-3-((4-(2,2-difluoroethyl)piperazin-1-yl)methyl)-10-(2,4-difluorophenyl)-9-(trifluoromethyl)-2H-[1,4]thiazino[2,3,4-ij]quinazolin-5(3H)-one]
9 | 83.9% | C=CC(=O)N1CCN(c2nc(=O)n3c4c(c(-c5ccc(F)cc5)c(Cl)cc24)SC[C@@H]3CN2CCN(CC)CC2)[C@@H](C)C1 [Example 410, (S)-7-((S)-4-acryloyl-2-methylpiperazin-1-yl)-9-chloro-3((4-ethylpiperazin-1-yl)methyl)-10-(4-fluorophenyl)-2H-[1,4]thiazino[2,3,4-ij]quinazolin-5(3H)-one]

Same assay, conditions: 10 uM, 60 min; Table 2a

Row | % CAF 10 uM @ 60 min | Structure (SMILES)
10 | 91% | C=CC(=O)N1CCN(c2nc(=O)n3c4c(c(-c5cc(F)cc(F)c5)c(Cl)cc24)SCC3)[C@@H](C)C1 [Example 66, (S)-7-(4-acryloyl-2-methylpiperazin-1-yl)-9-chloro-10-(3,5-difluorophenyl)-2,3-dihydro-5H-[1,4]thiazino[2,3,4-ij]quinazolin-5-one]
11 | 3% | C=C(F)C(=O)N1CCN(c2nc(=O)n3c4c(c(-c5cc(F)cc(Cl)c5)c(Cl)cc24)SCC3)[C@@H](C)C1 [Example 64, (S)-9-chloro-10-(3-chloro-5-fluorophenyl)-7-(4-(2-fluoroacryloyl)-2-methylpiperazin-1-yl)-2,3-dihydro-5H-[1,4]thiazino[2,3,4-ij]quinazolin-5-one]
12 | 75% | C[C@H]1CN(C(=O)/C=C/C(F)F)CCN1c1nc(=O)n2c3c(c(-c4cc(F)cc(Cl)c4)c(Cl)cc13)SCC2 [Example 63, (S,E)-9-chloro-10-(3-chloro-5-fluorophenyl)-7-(4-(4,4-difluorobut-2-enoyl)-2-methylpiperazin-1-yl)-2,3-dihydro-5H-[1,4]thiazino[2,3,4-ij]quinazolin-5-one]

Same assay, conditions: 10 uM, 1 h; Table 3

Row | Structure (SMILES) | % CAF @ 10 uM, 1h
13 | C=CC(=O)N1CCN(c2nc(=O)n3c4c(c(-c5ccc(F)cc5F)c(Cl)cc24)SCC3)C2CSCC21 (stereo not shown) [Example 144, 7-(4-acryloylhexahydrothieno[3,4-b]pyrazin-1(2H)-yl)-9-chloro-10-(2,4-difluorophenyl)-2,3-dihydro-5H-[1,4]thiazino[2,3,4-ij]quinazolin-5-one] | 64.9%
14 | C=CC(=O)N1CCN(c2nc(=O)n3c4c(c(-c5ccc(F)cc5F)c(Cl)cc24)SCC3)C2CS(=O)(=O)CC21 (stereo not shown) [Example 131, 7-(4-acryloyl-6,6-dioxidohexahydrothieno[3,4-b]pyrazin-1(2H)-yl)-9-chloro-10-(2,4-difluorophenyl)-2,3-dihydro-5H-[1,4]thiazino[2,3,4-ij]quinazolin-5-one] | 82.2%
15 | C=CC(=O)N1CCN(c2nc(=O)n3c4c(c(-c5cc(F)cc(F)c5)c(Cl)cc24)SCC3)[C@@H](C)C1 [Example 66, (S)-7-(4-acryloyl-2-methylpiperazin-1-yl)-9-chloro-10-(3,5-difluorophenyl)-2,3-dihydro-5H-[1,4]thiazino[2,3,4-ij]quinazolin-5-one] | 70%
16 | C=C(F)C(=O)N1CCN(c2nc(=O)n3c4c(c(-c5cc(F)cc(Cl)c5)c(Cl)cc24)SCC3)[C@@H](C)C1 [Example 64, (S)-9-chloro-10-(3-chloro-5-fluorophenyl)-7-(4-(2-fluoroacryloyl)-2-methylpiperazin-1-yl)-2,3-dihydro-5H-[1,4]thiazino[2,3,4-ij]quinazolin-5-one] | 75%
17 | C[C@H]1CN(C(=O)/C=C/C(F)F)CCN1c1nc(=O)n2c3c(c(-c4cc(F)cc(Cl)c4)c(Cl)cc13)SCC2 [Example 63, (S,E)-9-chloro-10-(3-chloro-5-fluorophenyl)-7-(4-(4,4-difluorobut-2-enoyl)-2-methylpiperazin-1-yl)-2,3-dihydro-5H-[1,4]thiazino[2,3,4-ij]quinazolin-5-one] | 67%

Results, then the compound that gave them:

Row | % CAF @ 10 uM, 1h | Structure (SMILES)
18 | 83.7% | C=CC(=O)N1CCN(c2nc(=O)n3c4c(c(-c5ccc(F)cc5F)c(Cl)cc24)SCC3)C[C@H]1CS(C)(=O)=O [Example 187, 7-((S)-4-acryloyl-3-((methylsulfonyl)methyl)piperazin-1-yl)-9-chloro-10-(2,4-difluorophenyl)-2,3-dihydro-5H-[1,4]thiazino[2,3,4-ij]quinazolin-5-one]
19 | 45.3% | C=CC(=O)N1C[C@H](C)N(c2nc(=O)n3c4c(c(-c5cccc6ccccc56)c(Cl)cc24)SCC3)C[C@H]1C (atropisomer, axis not shown) [Example 183, 7-((2S,5R)-4-acryloyl-2,5-dimethylpiperazin-1-yl)-9-chloro-10-(naphthalen-1-yl)-2,3-dihydro-5H-[1,4]thiazino[2,3,4-ij]quinazolin-5-one]
